The subject of one data set is interferon (α). Kind of data set: Cytokine Induction in Human Cells: interferon (α) secreted by PBMCs, ELISA. The data set is classed as cell-based. Particulars: PBMC, incubated 18 to 24 hours, lowest concentration found to induce interferon. An excerpt:
(§1) An in vitro human blood cell system was used to assess cytokine induction by compounds of the invention. Activity is based on the measurement of interferon and tumor necrosis factor (α) (IFN and TNF, respectively) secreted into culture media as described by Testerman et. al. In “Cytokine Induction by the Immunomodulators Imiquimod and S-27609”, Journal of Leukocyte Biology, 58, 365–372 (September, 1995).
(§2) Whole blood is collected by venipuncture into EDTA vacutainer tubes from healthy human donors. Peripheral blood mononuclear cells (PBMCs) are separated from whole blood by density gradient centrifugation using Histopaque®-1077 (Sigma Chemicals, St. Louis, Mo.). The PBMCs are suspended at 3–4×10^6 cells/mL in RPMI 1640 medium containing 10% fetal bovine serum, 2 mM L-glutamine and 1% penicillin/streptomycin solution (RPMI complete). The PBMC suspension is added to 48 well flat bottom sterile tissue culture plates (Costar, Cambridge, Mass. or Becton Dickinson Labware, Lincoln Park, N.J.) containing an equal volume of RPMI complete media containing test compound.
(§3) The compounds are solubilized in dimethyl sulfoxide (DMSO). The DMSO concentration should not exceed a final concentration of 1% for addition to the culture wells.
(§4) The solution of test compound is added at 60 μM to the first well containing RPMI complete and serial (three fold or ten fold) dilutions are made. The PBMC suspension is then added to the wells in an equal volume, bringing the test compound concentrations to the desired range. The final concentration of PBMC suspension is 1.5–2×10^6 cells/mL. The plates are covered with sterile plastic lids, mixed gently and then incubated for 18 to 24 hours at 37° C. in a 5% carbon dioxide atmosphere.
(§5) Following incubation the plates are centrifuged for 5–10 minutes at 1000 rpm (˜200×g) at 4° C. The cell culture supernatant is removed with a sterile polypropylene pipette and transferred to sterile polypropylene tubes. Samples are maintained at −30 to −70° C. until analysis. The samples are analyzed for interferon (α) and tumor necrosis factor (α) by ELISA
Interferon (α) concentration is determined by ELISA using a Human Multi-Species kit from PBL Biomedical Laboratories, New Brunswick, N.J.
(§6) The table below lists the lowest concentration found to induce interferon and the lowest concentration found to induce tumor necrosis factor for each compound.
(In general: ELISA stands for enzyme-linked immunosorbent assay.)

Data set [1] concerns tumor necrosis factor (α). Kind of data set: Cytokine Induction in Human Cells: tumor necrosis factor (α) secreted by PBMCs, ELISA. In kind it is cell-based. Particulars: PBMC, incubated 18 to 24 hours, lowest concentration found to induce tumor necrosis factor.
From the text: as §1, §2, §3, §4, §5
Tumor necrosis factor (α) (TNF) concentration is determined using ELISA kits available from Genzyme, Cambridge, Mass.; R&D Systems, Minneapolis, Minn.; or Pharmingen, San Diego, Calif.
as §6

The structures appear in SMILES notation. Where only a bound is given, the exact number is not on record here.

In the case of `CCOCc1nc2c(N)nc3ccccc3c2n1CCCNS(C)(=O)=O` [Example 255, N-{3-[4-amino-2-(ethoxymethyl)-1H-imidazo[4,5-c]quinolin-1-yl]propyl}methanesulfonamide], the melting point (usually the temperature of the solid-liquid transition) is 208.2 to 209.6 °C. Further, the minimal effective concentration (in general, the smallest amount tested that counted as effective) with interferon (α) was 0.12 µM. The minimal effective concentration in data set [1] is 3.33 µM.
Compound `COCCc1nc2c(N)nc3ccccc3c2n1CC(C)(C)CNS(C)(=O)=O` [Example 256, N-{3-[4-amino-2-(2-methoxyethyl)-1H-imidazo[4,5-c]quinolin-1-yl]-2,2-dimethylpropyl}methanesulfonamide] registered a melting point of 204 to 206 °C. The compound further returned a minimal effective concentration in the data set on interferon (α) of 0.01 µM. In data set [1], this compound registered a minimal effective concentration of 0.04 µM.
On to `COCCc1nc2c(N)nc3ccccc3c2n1CCCNS(=O)(=O)c1cccc2c(N(C)C)cccc12` [Example 257, N-{3-[4-amino-2-(2-methoxyethyl)-1H-imidazo[4,5-c]quinolin-1-yl]propyl}-5-(dimethylamino)naphthalene-1-sulfonamide], for which the melting point lay in the range of 210 to 215 °C. Also, the minimal effective concentration with interferon (α) came out at 1.11 µM. The compound further yielded a minimal effective concentration in data set [1] of 3.33 µM.
The corresponding values for `Cc1nc2c(N)nc3ccccc3c2n1CCCNS(C)(=O)=O` [Example 258, N-[3-(4-amino-2-methyl-1H-imidazo[4,5-c]quinolin-1-yl)propyl]methanesulfonamide] are 236 to 238 °C, 0.37 µM and 10 µM.
The corresponding values for `COCCc1nc2c(N)nc3c(c2n1CCCNS(C)(=O)=O)CCCC3` [Example 259, N-{3-[4-amino-2-(2-methoxyethyl)-6,7,8,9-tetrahydro-1H-imidazo[4,5-c]quinolin-1-yl]propyl}methanesulfonamide] are 150 to 152 °C, 0.01 µM and 10 µM.
With `CCOCc1nc2c(N)nc3c(c2n1CCCNS(C)(=O)=O)CCCC3` [Example 260, N-{3-[4-amino-2-(ethoxymethyl)-6,7,8,9-tetrahydro-1H-imidazo[4,5-c]quinolin-1-yl]propyl}methanesulfonamide], the melting point is 212 to 214 °C. The minimal effective concentration with interferon (α) amounted to 0.01 µM. Besides, the minimal effective concentration in data set [1] amounted to 0.37 µM.
For `CS(=O)(=O)NCCCn1c(CCCOc2ccccc2)nc2c(N)nc3ccccc3c21` [Example 261, N-{3-[4-amino-2-(3-phenoxypropyl)-1H-imidazo[4,5-c]quinolin-1-yl]propyl}methanesulfonamide] the same measures were 176 to 178 °C, over 30 µM and 10 µM.
The compound `CS(=O)(=O)NCCCCn1c(CCCOc2ccccc2)nc2c(N)nc3ccccc3c21` [Example 262, N-{4-[4-amino-2-(3-phenoxypropyl)-1H-imidazo[4,5-c]quinolin-1-yl]butyl}methanesulfonamide] came in with a melting point of 156.4 to 157.1 °C. This compound gave a minimal effective concentration in the data set with interferon (α) of over 30 µM. This compound returned a minimal effective concentration in data set [1] of 10 µM.
For `CCCCc1nc2c(N)nc3ccccc3c2n1CCNS(=O)(=O)c1ccc(C)cc1` [Example 264, N-[2-(4-amino-2-butyl-1H-imidazo[4,5-c]quinolin-1-yl)ethyl]-4-methylbenzenesulfonamide], the melting point lay in the range of 187 to 188 °C. For the same compound, the minimal effective concentration in the data set on interferon (α) was found to be 1.11 µM. The compound further registered a minimal effective concentration in data set [1] of 1.11 µM.
As for `CCCCc1nc2c(N)nc3ccccc3c2n1CCNS(C)(=O)=O` [Example 265, N-[2-(4-amino-2-butyl-1H-imidazo[4,5-c]quinolin-1-yl)ethyl]methanesulfonamide], the melting point fell in the range of 210 to 211 °C. In the data set on interferon (α), the minimal effective concentration was 0.01 µM. The minimal effective concentration in data set [1] turned out to be 0.04 µM.
Take `CCCCc1nc2c(N)nc3ccccc3c2n1CCCCN1CCCS1(=O)=O` [Example 267, 2-butyl-1-[4-(1,1-dioxidoisothiazolidin-2-yl)butyl]-1H-imidazo[4,5-c]quinolin-4-amine]: the melting point was 173 to 176 °C. The minimal effective concentration with interferon (α) is 0.01 µM. The same compound displayed a minimal effective concentration in data set [1] of 0.12 µM.
